Test systems include KM20L2 colon; DMS 273 small cell lung; HCT-116 colon; SF-268 CNS; HOP-18 NSCLC; SNB-78 CNS; XF 498 CNS; MDA-MB-231 breast; PC-3 prostate.
Assay in all cases: inhibition of tumour cell growth, NCI panel, 48 h

Several values for one entry are separate records, joined by “and”; a condition that tells them apart may be missing. Identical values can stand only once.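 Five compound concentrations were applied to cells in 96-well plates for 48 hours; endpoints were derived by simple linear interpolation of the resulting dose-response curve. Here, GI50 denotes the concentration required for 50% inhibition of growth. TGI: total growth inhibition.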 Activity calls are given as the source filed them. Cut-off read from the data, not from the text of the source: active = GI50 below about 0.43 µM; inactive = the rest.

With `COC1OC(C)C(O)CC1OS(=O)(=O)c1ccc(C)cc1` (stereo not drawn), the TGI in the assay on KM20L2 colon, in the assay on DMS 273 small cell lung, in the assay with HCT-116 colon, in the assay on SF-268 CNS, in the assay on HOP-18 NSCLC and in the assay with SNB-78 CNS was greater than 100 µM in each case.
`C1CCN(C2OC3C(COC3N3CCCCC3)OC2OC2CCO[C@@H]2N2CCCCC2)CC1` (stereo partly drawn): the TGI with KM20L2 colon was greater than 100 µM; with DMS 273 small cell lung, greater than 100 µM; with HCT-116 colon, greater than 100 µM; in the assay on SF-268 CNS, greater than 100 µM; in the assay on SNB-78 CNS, 56.1 µM; with XF 498 CNS it was 37.3 µM.
As for `O=C(O)CC12C3C4C5C3C1C5C42` (stereo not drawn), the TGI in the assay on KM20L2 colon, with DMS 273 small cell lung, in the assay on HCT-116 colon, with SF-268 CNS, with SNB-78 CNS and in the assay on XF 498 CNS was greater than 100 µM each time.
`Cc1ccc(/C=C/C(=O)c2sc(-c3cccnc3)nc2C)cc1`: the TGI in the assay on KM20L2 colon, with DMS 273 small cell lung, in the assay on HOP-18 NSCLC and in the assay on SNB-78 CNS was greater than 100 µM throughout.
Regarding `O=C1NC2CCC(C2)C1c1ccccc1` (stereo not drawn), the TGI in the assay on DMS 273 small cell lung, in the assay with SF-268 CNS, with HOP-18 NSCLC and in the assay on SNB-78 CNS was greater than 100 µM in each case.
For the compound `C=C1C(=O)[C@@]23CC1C(O)[C@@H](OC(C)=O)[C@@H]2C1(C)C(OC(C)=O)C[C@@H](OC(C)=O)C(C)(C)[C@@H]1C[C@H]3OC(C)=O` (stereo partly drawn), in the assay with KM20L2 colon, the outcome was inactive. The GI50 in the assay on HCT-116 colon is 1.45 µM and 1.46 µg/mL; in the assay on SF-268 CNS, > 10 µM and 6.82 µg/mL; in the assay on MDA-MB-231 breast, 2.38 µg/mL; with PC-3 prostate it was 10.6 µg/mL. The TGI in the assay with HCT-116 colon is 2.98 µM and 2.89 µg/mL; in the assay with SF-268 CNS, > 10 µM and 28.3 µg/mL; with MDA-MB-231 breast, 7.49 µg/mL; in the assay on PC-3 prostate, > 10 µM and 22.4 µg/mL.
For `CC(=O)Nc1c(C)ccc2c1C(=O)c1ccccc1C2=O`, the TGI with DMS 273 small cell lung, in the assay on HCT-116 colon, in the assay with SF-268 CNS, in the assay on HOP-18 NSCLC and in the assay on SNB-78 CNS was greater than 100 µM in each case.
As to `CC[O-].CC[O-].O=C1C(c2ccccc2)=C([O-])c2ccccc21.O=C1C(c2ccccc2)=C([O-])c2ccccc21.[Ti+4]`, the GI50 in the assay with KM20L2 colon, in the assay on DMS 273 small cell lung, with HCT-116 colon, in the assay with SF-268 CNS, with HOP-18 NSCLC and in the assay with SNB-78 CNS was greater than 100 µM in each case. The TGI in the assay with KM20L2 colon, with DMS 273 small cell lung, in the assay with HCT-116 colon, with SF-268 CNS, in the assay with HOP-18 NSCLC and with SNB-78 CNS was greater than 100 µM throughout.
Regarding `COc1ccc2cc3[n+](cc2c1OC)CCc1cc(O)c(O)cc1-3`, the TGI in the assay with KM20L2 colon, in the assay on DMS 273 small cell lung, in the assay on HCT-116 colon, in the assay with SF-268 CNS, with SNB-78 CNS and in the assay with XF 498 CNS was greater than 100 µM throughout.
Regarding `COc1cccc(-c2nc3sccn3c2-c2ccnc(NCCNS(=O)(=O)c3ccccc3)c2)c1`, the GI50 in the assay with HCT-116 colon is 2.73 µM; in the assay with SF-268 CNS it was 3.54 µM; in the assay with MDA-MB-231 breast, 3.81 µM; in the assay with PC-3 prostate, 1.68 µM. For the same compound, the TGI with HCT-116 colon, in the assay with SF-268 CNS, in the assay on MDA-MB-231 breast and in the assay with PC-3 prostate was greater than 100 µM throughout.
`COC(=O)c1c2c(c(C)[n+]([O-])c1C)C(=O)C=C(NCc1ccc(OC)cc1)C2=O`: the GI50 in the assay on HCT-116 colon was 2.4 µM; in the assay on SF-268 CNS, 2.24 µM; in the assay on MDA-MB-231 breast, 0.959 µM; in the assay with PC-3 prostate, 1.02 µM. For the same compound, the TGI in the assay with HCT-116 colon was determined as 7.08 µM; with SF-268 CNS, 8.27 µM; in the assay on MDA-MB-231 breast, 5.41 µM; with PC-3 prostate it was 6.55 µM.
As for `CC(=O)N/C(=C\c1cccc([N+](=O)[O-])c1)c1nc2c3c(ccc2[nH]1)C(=O)c1ccccc1C3=O`, the TGI with KM20L2 colon, in the assay on HCT-116 colon, with SF-268 CNS, with SNB-78 CNS and with XF 498 CNS was greater than 100 µM each time.
`Cc1cc(C)nc(NS(=O)(=O)c2ccc(Nc3c4ccc(Cl)cc4nc4c(C(=O)Nc5ccc(S(=O)(=O)N=C(N)N)cc5)cccc34)cc2)n1`: the TGI with KM20L2 colon, in the assay with HCT-116 colon, in the assay with SF-268 CNS, in the assay on SNB-78 CNS and in the assay with XF 498 CNS was greater than 100 µM throughout.
With `CC/C(=C(/CC)c1ccc(O)cc1)c1ccc([O-])cc1.CC/C(=C(/CC)c1ccc(O)cc1)c1ccc([O-])cc1.O=C([CH-]C(=O)c1ccccc1)c1ccccc1.O=C([CH-]C(=O)c1ccccc1)c1ccccc1.[Ti+4]`, the GI50 in the assay with KM20L2 colon was 19.3 µM; in the assay with DMS 273 small cell lung it was 16.3 µM; with HCT-116 colon, 5.22 µM; in the assay with SF-268 CNS it was 18 µM; in the assay on HOP-18 NSCLC it was 24.4 µM; in the assay on SNB-78 CNS, 27.1 µM. In addition, the TGI is 41.3 µM in the assay with KM20L2 colon; greater than 100 µM in the assay on DMS 273 small cell lung; 17.3 µM with HCT-116 colon; 73.2 µM with SF-268 CNS; 39.3 µM in the assay on HOP-18 NSCLC; greater than 100 µM in the assay on SNB-78 CNS.
With `COc1ccc(-c2nc3ncccn3c2/C=C/C(=O)c2cc(OC)c(OC)c(OC)c2)cc1`, the GI50 was 1.17 µM in the assay with HCT-116 colon, 2.36 µM in the assay on SF-268 CNS, 2.73 µM with MDA-MB-231 breast and 4.32 µM in the assay with PC-3 prostate. In addition, the TGI in the assay with HCT-116 colon came to 2.39 µM; with SF-268 CNS it was 9.62 µM; in the assay with MDA-MB-231 breast, 17.2 µM; with PC-3 prostate, 53.2 µM.
For `CCn1c(O)c(C=N)c(=O)n(CC)c1=O`, the TGI in the assay on KM20L2 colon, in the assay on DMS 273 small cell lung, in the assay with HCT-116 colon, with SF-268 CNS, in the assay with HOP-18 NSCLC and in the assay with SNB-78 CNS was greater than 100 µM each time.
Regarding `COc1c(Cl)c2c(c(OC)c1OC)-c1ccc(SC)c(=O)cc1[C@@H](NC(=O)OCC(F)(F)F)CC2`, the GI50 in the assay on HCT-116 colon is less than 0.01 µM; in the assay on SF-268 CNS it was less than 0.0105 µM; with MDA-MB-231 breast, less than 0.01 µM; with PC-3 prostate it was less than 0.01 µM. Further, the TGI in the assay on HCT-116 colon was 0.218 µM; in the assay with SF-268 CNS, greater than 90.5 µM; in the assay on MDA-MB-231 breast, 3.24 µM; in the assay with PC-3 prostate, greater than 72.8 µM.

The values are drawn from PubChem BioAssay (NCI).
